{"source": "patent US9587205B2", "about": "“Activation of peroxygen bleach” (Warwick International Group Limited, priority 2012, dated 2017)", "assay": "Peracid (peracetic acid) release rate, iodometric titration", "assay_type": "physicochemical", "conditions": "for Peracid Release (% th. max): time 5 mins, 20° C., 75 rpm, actual PAR/theoretical PAR", "method": "The invention is illustrated by determining the rate of peracid release as a proportion of the maximum achievable based on acetyl groups available for reaction with perhydroxyl ion.\nIn this specification the method used to measure peracid generation is an iodometric titration carried out as follows: 25 g of a mixture of 85% by weight IEC A*base detergent, 10% sodium percarbonate and 5% activator, accurately weighed, is added to it deionised water at 20° C. in a beaker stirred by overhead stirrer at 75 rpm at t=0. After predetermined times from 2 mins, a 50 ml sample of the solution is added to a mixture of 15 ml glacial acetic acid and 5 ml of a 10% solution of potassium iodide at 0° C. and titrated against 0.05M sodium thiosulphate using a suitable indicator for iodine as quickly as possible. The theoretical amount of peracid released (PAR) is calculated as follows:\n[formula] for TriAED the moles of peracid released is 1, for TAED it is 2.\nThe actual amount of peracid released (actual PAR) is calculated from the titre of thiosulphate and its molarity, based on the correlation of 2 moles thiosulphate to 1 mole of peracid. The results reported are of actual PAR/theoretical PAR for each time point.\nTesting of peracetic acid release rate is carried out according to the standard test method described above."}
{"smiles": "CC(=O)N(CCN(C(C)=O)C(C)=O)C(C)=O", "note": "[TAED, Tetra-acetylethylene diamine]", "values": [{"measurement": "Peracid Release (% th. max)", "result": 45, "unit": "% th. max"}, {"measurement": "peracid release as a proportion of the maximum achievable", "setting": "within two minutes of being added to water at 20° C.", "result": "less than 70%"}]}
{"smiles": "CC(=O)NCCN(C(C)=O)C(C)=O", "note": "[Tri AED, N,N,N′-triacetylethylene diamine]", "values": [{"measurement": "Peracid Release (% th. max)", "result": 92, "unit": "% th. max"}]}
